# Measured values taken from PubChem BioAssay (NCI).
#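 The concentration for 50% growth inhibition is given as GI50. At the TGI there is no net growth.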
# Tests used:
# Experiment in all cases: growth of human tumour cells (NCI), 384-well format
# KM12 colon = tested on: KM12 colon
# M14 melanoma = tested on: M14 melanoma
# HCT-116 colon = tested on: HCT-116 colon
# RXF 393 renal = tested on: RXF 393 renal
# SW-620 colon = tested on: SW-620 colon
# SNB-19 CNS = tested on: SNB-19 CNS
# EKVX NSCLC = tested on: EKVX NSCLC
# MOLT-4 leukemia = tested on: MOLT-4 leukemia
# PC-3 prostate = tested on: PC-3 prostate
# DU-145 prostate = tested on: DU-145 prostate
# UACC-62 melanoma = tested on: UACC-62 melanoma
# COLO 205 colon = tested on: COLO 205 colon
# MDA-MB-435 melanoma = tested on: MDA-MB-435 melanoma
# HCC-2998 colon = tested on: HCC-2998 colon
# SK-MEL-28 melanoma = tested on: SK-MEL-28 melanoma
# 786-0 renal = tested on: 786-0 renal
# SF-268 CNS = tested on: SF-268 CNS
# SF-539 CNS = tested on: SF-539 CNS
# HL-60(TB) leukemia = tested on: HL-60(TB) leukemia
# OVCAR-4 ovarian = tested on: OVCAR-4 ovarian
# SF-295 CNS = tested on: SF-295 CNS
# HCT-15 colon = tested on: HCT-15 colon
# SK-OV-3 ovarian = tested on: SK-OV-3 ovarian
# OVCAR-3 ovarian = tested on: OVCAR-3 ovarian
# UO-31 renal = tested on: UO-31 renal
# K-562 leukemia = tested on: K-562 leukemia
# HOP-92 NSCLC = tested on: HOP-92 NSCLC
# MDA-MB-231 breast = tested on: MDA-MB-231 breast
# UACC-257 melanoma = tested on: UACC-257 melanoma
# NCI-H23 lung = tested on: NCI-H23 lung
# A498 renal = tested on: A498 renal
# SK-MEL-5 melanoma = tested on: SK-MEL-5 melanoma
# OVCAR-8 ovarian = tested on: OVCAR-8 ovarian
# ACHN renal = tested on: ACHN renal
# NCI-H460 NSCLC = tested on: NCI-H460 NSCLC
# SK-MEL-2 melanoma = tested on: SK-MEL-2 melanoma
# A549 NSCLC = tested on: A549 NSCLC
# HT29 colon = tested on: HT29 colon
# NCI-H522 lung = tested on: NCI-H522 lung
# U251 glioblastoma = tested on: U251 glioblastoma
# HS 578T breast = tested on: HS 578T breast
# SR leukemia = tested on: SR leukemia
# MALME-3M melanoma = tested on: MALME-3M melanoma
# T-47D breast = tested on: T-47D breast
# NCI/ADR-RES ovarian = tested on: NCI/ADR-RES ovarian
# NCI-H226 lung = tested on: NCI-H226 lung
# NCI-H322M lung = tested on: NCI-H322M lung
smiles,measurement,setting,value
O=C1CC[C@H](N2Cc3c(OCc4ccc(CN5CCOCC5)cc4)cccc3C2=O)C(=O)N1,GI50,KM12 colon,> 100 µM
same,TGI,KM12 colon,> 100 µM
same,GI50,M14 melanoma,> 100 µM
same,TGI,M14 melanoma,> 100 µM
same,GI50,HCT-116 colon,> 100 µM
same,TGI,HCT-116 colon,> 100 µM
same,GI50,RXF 393 renal,> 100 µM
same,TGI,RXF 393 renal,> 100 µM
same,GI50,SW-620 colon,> 100 µM
same,TGI,SW-620 colon,> 100 µM
same,GI50,SNB-19 CNS,> 100 µM
same,TGI,SNB-19 CNS,> 100 µM
same,GI50,EKVX NSCLC,> 100 µM
same,TGI,EKVX NSCLC,> 100 µM
same,GI50,MOLT-4 leukemia,> 100 µM
same,TGI,MOLT-4 leukemia,> 100 µM
same,GI50,PC-3 prostate,> 100 µM
same,TGI,PC-3 prostate,> 100 µM
same,GI50,DU-145 prostate,> 100 µM
same,TGI,DU-145 prostate,> 100 µM
same,GI50,UACC-62 melanoma,> 100 µM
same,TGI,UACC-62 melanoma,> 100 µM
same,GI50,COLO 205 colon,> 100 µM
same,TGI,COLO 205 colon,> 100 µM
same,GI50,MDA-MB-435 melanoma,> 100 µM
same,TGI,MDA-MB-435 melanoma,> 100 µM
same,GI50,HCC-2998 colon,> 100 µM
same,TGI,HCC-2998 colon,> 100 µM
same,GI50,SK-MEL-28 melanoma,> 100 µM
same,TGI,SK-MEL-28 melanoma,> 100 µM
same,GI50,786-0 renal,> 100 µM
same,TGI,786-0 renal,> 100 µM
same,GI50,SF-268 CNS,> 100 µM
same,TGI,SF-268 CNS,> 100 µM
same,GI50,SF-539 CNS,> 100 µM
same,TGI,SF-539 CNS,> 100 µM
same,GI50,HL-60(TB) leukemia,43.9 µM
same,TGI,HL-60(TB) leukemia,> 100 µM
same,GI50,OVCAR-4 ovarian,> 100 µM
same,TGI,OVCAR-4 ovarian,> 100 µM
same,GI50,SF-295 CNS,> 100 µM
same,TGI,SF-295 CNS,> 100 µM
same,GI50,HCT-15 colon,> 100 µM
same,TGI,HCT-15 colon,> 100 µM
same,GI50,SK-OV-3 ovarian,> 100 µM
same,TGI,SK-OV-3 ovarian,> 100 µM
same,GI50,OVCAR-3 ovarian,> 100 µM
same,TGI,OVCAR-3 ovarian,> 100 µM
same,GI50,UO-31 renal,> 100 µM
same,TGI,UO-31 renal,> 100 µM
same,GI50,K-562 leukemia,> 100 µM
same,TGI,K-562 leukemia,> 100 µM
same,GI50,HOP-92 NSCLC,> 100 µM
same,TGI,HOP-92 NSCLC,> 100 µM
same,GI50,MDA-MB-231 breast,> 100 µM
same,TGI,MDA-MB-231 breast,> 100 µM
same,GI50,UACC-257 melanoma,> 100 µM
same,TGI,UACC-257 melanoma,> 100 µM
same,GI50,NCI-H23 lung,> 100 µM
same,TGI,NCI-H23 lung,> 100 µM
same,GI50,A498 renal,> 100 µM
same,TGI,A498 renal,> 100 µM
same,GI50,SK-MEL-5 melanoma,> 100 µM
same,TGI,SK-MEL-5 melanoma,> 100 µM
same,GI50,OVCAR-8 ovarian,> 100 µM
same,TGI,OVCAR-8 ovarian,> 100 µM
same,GI50,ACHN renal,> 100 µM
same,TGI,ACHN renal,> 100 µM
same,GI50,NCI-H460 NSCLC,> 100 µM
same,TGI,NCI-H460 NSCLC,> 100 µM
same,GI50,SK-MEL-2 melanoma,> 100 µM
same,TGI,SK-MEL-2 melanoma,> 100 µM
same,GI50,A549 NSCLC,> 100 µM
same,TGI,A549 NSCLC,> 100 µM
same,GI50,HT29 colon,> 100 µM
same,TGI,HT29 colon,> 100 µM
same,GI50,NCI-H522 lung,> 100 µM
same,TGI,NCI-H522 lung,> 100 µM
same,GI50,U251 glioblastoma,> 100 µM
same,TGI,U251 glioblastoma,> 100 µM
same,GI50,HS 578T breast,> 100 µM
same,TGI,HS 578T breast,> 100 µM
same,GI50,SR leukemia,> 100 µM
same,TGI,SR leukemia,> 100 µM
same,GI50,MALME-3M melanoma,> 100 µM
same,TGI,MALME-3M melanoma,> 100 µM
same,GI50,T-47D breast,> 100 µM
same,TGI,T-47D breast,> 100 µM
same,GI50,NCI/ADR-RES ovarian,> 100 µM
same,TGI,NCI/ADR-RES ovarian,> 100 µM
same,GI50,NCI-H226 lung,> 100 µM
same,TGI,NCI-H226 lung,> 100 µM
same,GI50,NCI-H322M lung,> 100 µM
same,TGI,NCI-H322M lung,> 100 µM
